Here are results for 24 compounds from ChEMBL document CHEMBL3871307, “Discovery of Chromane Propionic Acid Analogues as Selective Agonists of GPR120 with in Vivo Activity in Rodents” (ACS Med Chem Lett, 2017).

The target in data set [1] is T1, Free fatty acid receptor 4 (Homo sapiens, UniProt Q5NUL3).
T1 sequence (Q5NUL3 whole entry): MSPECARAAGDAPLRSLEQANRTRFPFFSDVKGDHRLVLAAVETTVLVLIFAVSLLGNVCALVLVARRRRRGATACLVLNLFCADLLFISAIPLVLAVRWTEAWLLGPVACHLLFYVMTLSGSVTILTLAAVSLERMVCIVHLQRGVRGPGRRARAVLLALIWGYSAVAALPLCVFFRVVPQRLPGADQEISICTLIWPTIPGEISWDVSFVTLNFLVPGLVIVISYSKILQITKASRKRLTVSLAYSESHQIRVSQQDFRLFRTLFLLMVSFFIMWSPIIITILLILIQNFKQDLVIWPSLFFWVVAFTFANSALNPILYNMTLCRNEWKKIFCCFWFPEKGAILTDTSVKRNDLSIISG
The experiment in a line: Agonist activity at human GPR120 short isoform expressed in CHOK1 cells assessed as increase in IP1 accumulation after 60 mins by HTRF assay. The data set is classed as functional, cell-based, CHO-K1.

Data set [2] concerns the target T1, Free fatty acid receptor 4. Kind of data set: Agonist activity at human GPR120 short isoform expressed in CHOK1 cells assessed as beta-arrestin recruitment after 90 mins by luminescence assay. The data set is classed as cell-based, CHO-K1. (In general: Recruitment of arrestin is a read-out of receptor activation apart from second messengers.)
Data set [3] concerns the target T2, Free fatty acid receptor 4 (Homo sapiens) (UniProt Q5NUL3).
T2 sequence (whole entry): T1 sequence (Q5NUL3 whole entry)
Kind of data set: Agonist activity at human GPR120 short isoform expressed in CHOK1 cells assessed as increase in IP1 accumulation at 10 uM after 60 mins by HTRF assay. As to conditions: CHO-K1. It counts as functional, cell-based.

Data set [4] deals with Free fatty acid receptor 1 (Homo sapiens, UniProt O14842). Kind of data set: Agonist activity at human GPR40 expressed in HEK293 cells assessed as increase in IP1 accumulation after 60 mins by HTRF assay. The data set is classed as functional, cell-based.
The nature of data set [5]: Clearance in rat plasma at 0.1 mg/kg administered as iv casette dose by LC/MS/MS analysis. It counts as ADME, organism-based.
Data set [6] in a line: Terminal half life in rat plasma at 0.1 mg/kg administered as iv casette dose by LC/MS/MS analysis. The data set is classed as ADME, organism-based. The conditions noted are these: read-out: beta t1/2 (converted).
Data set [7] can be described thus: Volume of distribution at steady state in rat plasma at 0.1 mg/kg administered as iv casette dose by LC/MS/MS analysis. The conditions noted are these: read-out: Vdss. The data set is classed as ADME, organism-based.
Data set [8] can be described thus: Protein binding in rat plasma at 0.1 mg/kg administered as iv casette dose by LC/MS/MS analysis. It counts as ADME, organism-based. The conditions noted are these: read-out: PPB (converted).
The nature of data set [9]: Intrinsic clearance in rat plasma at 0.1 mg/kg administered as iv casette dose by LC/MS/MS analysis. The data set is classed as ADME, organism-based. The conditions noted are these: in vivo.

Free fatty acid receptor 1, sequence (O14842 whole entry): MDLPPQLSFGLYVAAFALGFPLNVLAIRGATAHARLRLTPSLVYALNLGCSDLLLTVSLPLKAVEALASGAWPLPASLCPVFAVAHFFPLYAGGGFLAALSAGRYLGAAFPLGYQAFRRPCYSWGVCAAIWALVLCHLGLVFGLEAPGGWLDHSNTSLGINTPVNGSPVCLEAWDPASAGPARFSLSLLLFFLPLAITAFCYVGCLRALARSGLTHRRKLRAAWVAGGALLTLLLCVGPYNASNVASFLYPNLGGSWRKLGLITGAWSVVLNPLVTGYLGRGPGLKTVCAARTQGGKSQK

With `O=C(O)CC[C@H]1CCc2cc(-c3cc(OC(F)(F)F)ccc3F)ccc2O1`, the EC50 (as a rule, the concentration giving half of the maximal effect) stood at 170 nM in [1], 17 nM in [2] and 2100 nM in [4]. The Activity in [3] was greater than 50%. Besides, in data set [5], the clearance (usually the rate of elimination divided by the concentration) came to 9.5 mL/min/kg. In addition, the half-life in data set [6] is 1.3 h. In addition, in data set [7], the Vd amounted to 0.64 L/kg. In [8], the fraction unbound was 0.0016. Also, the CL in data set [9] is 10500 mL/min/kg.
In the case of `COc1cc(O[C@H]2C[C@H](OC)C2)cc(-c2ccc3c(c2)CC[C@H]([C@@H]2C[C@H]2C(=O)O)O3)c1F`, the values for the EC50 in [1], in data set [2] and in data set [4] were 55 nM, 78 nM and greater than 10000 nM, respectively. The Activity in data set [3] is greater than 50%.
For `O=C(O)CC[C@H]1CCc2cc(-c3cc(OC4CCC4)ccc3F)ccc2O1`, in that order: 28 nM, 10 nM, 3600 nM and greater than 50%.
With `O=C(O)CC[C@H]1CCc2cc(-c3cc(OC4CCC4)ncc3F)ccc2O1`, the EC50 came to 250 nM in data set [1], 230 nM in data set [2] and 2000 nM in data set [4]. Besides, the Activity in data set [3] is greater than 50%.
Turning to `O=C(O)CC[C@H]1CCc2cc(-c3cc(OC4CCC4)cc(F)c3F)ccc2O1`, the EC50 in data set [1] is 21 nM; in data set [2], 13 nM; in [4], greater than 10000 nM. Besides, in data set [3], the Activity was greater than 50%. The compound further yielded a clearance in data set [5] of 5.4 mL/min/kg. In data set [6], the half-life was 1.3 h. Further, the Vd in [7] worked out at 0.45 L/kg. Moreover, the fraction unbound in data set [8] was 0.0007. The compound also gave a CL in data set [9] of 8700 mL/min/kg.
As to `COc1cc(O[C@H]2C[C@H](OC)C2)cc(-c2ccc3c(c2)CC[C@H](CCc2nnn[nH]2)O3)c1F`, the EC50 is 53 nM in data set [1], 43 nM in data set [2] and greater than 10000 nM in data set [4]. The Activity in data set [3] is greater than 50%.
Turning to `Cc1cnc(Oc2cc(Cl)c(F)c(-c3ccc4c(c3)CC[C@H](CCC(=O)O)O4)c2)s1`, the half-maximal effective concentration (EC50) in data set [1] was 14 nM; in data set [2] it was 5.6 nM; in data set [4] it was greater than 10000 nM. For the same compound, in [3], the Activity was greater than 50%. Also, in [5], the clearance came to 1.6 mL/min/kg. Also, the half-life in data set [6] was 0.93 h. The Vd in data set [7] stood at 0.14 L/kg. In addition, in [8], the fraction unbound was 0.0003. For the same compound, the CL in data set [9] came to 6200 mL/min/kg.
In the case of `COc1cc(OC2CCC2)nc(-c2ccc3c(c2)CC[C@H](CCC(=O)O)O3)c1F`, the EC50 in data set [1] is 15 nM; in data set [2] it was 6.2 nM; in [4], greater than 10000 nM. For the same compound, in data set [3], the Activity is greater than 50%.
On the same counts, the results for `COc1cc(OC2CC2)cc(-c2ccc3c(c2)CC[C@H](CCc2nnn[nH]2)O3)c1F` are 51 nM, 32 nM, greater than 10000 nM and greater than 50%.
Regarding `COc1cc(Oc2ncc(C)s2)cc(-c2ccc3c(c2)CC[C@H](CCC(=O)O)O3)c1F`, the EC50 in data set [1] is 37 nM; in data set [2], 13 nM; in data set [4] it was greater than 10000 nM. In addition, in [3], the Activity is greater than 50%. This compound also had a clearance in [5] of 1.6 mL/min/kg. The half-life in data set [6] is 1.2 h. Moreover, the Vd in [7] came to 0.15 L/kg. Besides, the fraction unbound in data set [8] was 0.0007. In data set [9], this compound returned a CL of 3600 mL/min/kg.
Consider `O=C(O)[C@@H]1C[C@H]1[C@H]1CCc2cc(-c3cc(OC(F)(F)F)ccc3F)ccc2O1`, for which the EC50 was 69 nM in data set [1], 33 nM in data set [2] and greater than 10000 nM in data set [4]. In data set [3], the Activity was greater than 50%.
For `O=C(O)CC[C@H]1CCc2cc(-c3cc(OC(F)(F)F)cc(Cl)c3F)ccc2O1`, in that order: 72 nM, 17 nM, 2200 nM and greater than 50%.
For `COc1cc(OC2CCC2)cc(-c2ccc3c(c2)CC[C@H]([C@@H]2C[C@H]2C(=O)O)O3)c1F`, in that order: 25 nM, 8 nM, greater than 10000 nM and greater than 50%.
On to `O=C(O)[C@H]1C[C@@H]1[C@H]1CCc2cc(-c3cc(OC(F)(F)F)ccc3F)ccc2O1`, for which the results for the EC50 in data set [1], in [2] and in data set [4] were 320 nM, 130 nM and greater than 10000 nM, respectively. The Activity in [3] was greater than 50%.
On the same counts, the results for `COc1cc(OC2CCC2)nc(-c2ccc3c(c2)CC[C@H]([C@@H]2C[C@H]2C(=O)O)O3)c1F` are 18 nM, 7.8 nM, greater than 10000 nM and greater than 50%.
On the same counts, the results for `O=C(O)CC[C@H]1CCc2cc(-c3cc(OC4CCC4)cc(Cl)c3F)ccc2O1` are 40 nM, 8.3 nM, greater than 10000 nM and greater than 50%.
For the compound `O=C(O)CC[C@H]1CCc2cc(-c3nc(OC4CCC4)ccc3F)ccc2O1`, the EC50 in [1] is 30 nM; in data set [2] it was 21 nM; in data set [4] it was greater than 10000 nM. Moreover, in data set [3], the Activity is greater than 50%. In addition, the clearance in data set [5] worked out at 9.1 mL/min/kg. In [6], the half-life is 0.74 h. Moreover, the Vd in [7] was 0.23 L/kg. Also, in data set [8], the fraction unbound is 0.0023. This compound also had a CL in [9] of 4500 mL/min/kg.
As to `O=C(O)CC[C@H]1CCc2cc(-c3cc(OC4CCC4)cnc3F)ccc2O1`, the EC50 in data set [1] was 79 nM; in [2], 140 nM; in data set [4], greater than 10000 nM. Further, the Activity in data set [3] is greater than 50%.
With `O=C(O)CC[C@@H]1CCc2cc(-c3cc(OC(F)(F)F)ccc3F)ccc2O1`, the EC50 in data set [1] is 180 nM; in data set [2], 42 nM; in data set [4] it was greater than 10000 nM. Moreover, the Activity in [3] was greater than 50%.
For the compound `COc1cc(OC(F)(F)F)cc(-c2ccc3c(c2)CC[C@H](CCC(=O)O)O3)c1F`, the EC50 came to 25 nM in [1], 11 nM in data set [2] and 4400 nM in data set [4]. Further, the Activity in data set [3] is greater than 50%.
For `COc1cc(OC(F)(F)F)cc(-c2ccc3c(c2)CC[C@H](CCc2nnn[nH]2)O3)c1F`, in that order: 130 nM, 150 nM, greater than 10000 nM and 45%.
On the same counts, the results for `CO[C@H]1C[C@H](Oc2cc(F)c(F)c(-c3ccc4c(c3)CC[C@H](CCc3nnn[nH]3)O4)c2)C1` are 240 nM, 170 nM, greater than 10000 nM and 24%.
As to `Fc1ccc(OC(F)(F)F)cc1-c1ccc2c(c1)CC[C@H](CCc1nnn[nH]1)O2`, the results for the EC50 in data set [1], in data set [2] and in data set [4] were 330 nM, 890 nM and greater than 10000 nM, respectively. Also, the Activity in [3] is 17%.
As for `COc1cc(OC2CCC2)cc(-c2ccc3c(c2)CC[C@H](CCC(=O)O)O3)c1F`, the EC50 in data set [1] is 15 nM; in data set [2] it was 9 nM; in data set [4], greater than 10000 nM. Also, the Activity in [3] is greater than 50%.
